In US20160206620A1, “PURIN DERIVATIVES FOR USE IN THE TREATMENT OF FAB-RELATED DISEASES” (Boehringer Ingelheim International GmbH, priority 2008, published 2016):

Assays:
[1] = 2 h postprandial blood glucose excursions in patients with type 2 diabetes; type: in vivo, human; conditions: already on Day 1, doses ≧2.5 mg
Text: […]. […] […]. […] […].

ob/ob mice [2] = assay: Wound healing of excisional wounds in ob/ob mice (histology, Ly6G staining); type: in vivo, mouse; conditions: 3 mg/kg daily
Text: The ob/ob mice have been used and are accepted as experimental model for diabetes-impaired wound healing. These animals suffer from severe diabetes and obesity syndromes which show similar characteristics like in the human situation (e.g. obesity, insulin resistance). Insulin and diet reduce hyperglycemia in obese mice just they as they do in obese and diabetic subjects, but neither improves healing in these animals as has been shown recently.
(§1) Female C57BI/6J-ob/ob mice (Charles River, Sulzfeld) in the age of 8-9 weeks were used. 6 excisional wounds (including the panniculus carnosus) were placed on the back of each animal under ketamin anaesthesia. The animals were treated daily with 3 mg/kg of BI 1356 or methycellulose (1-2%). On day 10 an oral glucose tolerance test (2 g/kg) was performed (0, 30, 60, 90, 120 and 180 min) at the tail tip. Animals were killed under isofluran anaesthesia by cervical dislocation and wounds were excised for histological analysis. Serum was further taken for the detection of DPP-4 activity. Histology was performed in 6-8 μm paraffin embedded and paraformaldehyd fixed cuttings with eosin-hematoxylin staining. Moreover, polymorphonuclear neutrophils (PMN) were identified by immunohistological staining of Ly6G as a robust readout for wound inflammation. (Ref. S. Frank, Methods in Molecular Medicine 2003, Kämpfer, Diabetes 2006)

ob/ob mice [3] = assay: Oral glucose tolerance test in ob/ob mice; type: in vivo, mouse; conditions: 3 mg/kg daily, OGTT 2 g/kg on day 10
Protocol: as §1

clinical = conditions: human, urine
[4] = Safety and tolerability in people with type 2 diabetes
[5] = Pharmacokinetics of BI 1356 in patients with type 2 diabetes, multiple oral doses once daily for 12 days; conditions: for RA, AUC (accumulation ratio), gMean (gCV) / RA, Cmax (accumulation ratio), gMean (gCV) / feτ, ss, gMean (gCV): steady state (Day 12); for fe0-24, gMean (gCV): type 2 diabetes patients

With `CC#CCn1c(N2CCC[C@@H](N)C2)nc2c1c(=O)n(Cc1nc(C)c3ccccc3n1)c(=O)n2C` [BI 1356, 1-[(4-methyl-quinazolin-2-yl)methyl]-3-methyl-7-(2-butyn-1-yl)-8-(3-(R)-amino-piperidin-1-yl)-xanthine] the “decrease in 2 h postprandial blood glucose excursions” value [1] was ≥ 80%, the “PMN accumulation in wounds (Ly6G immunohistology)” value (ob/ob mice [2]) was “overall reduction of PMN accumulation” and the “wound morphology and wound re-epithelialization (histology)” value (ob/ob mice [2]) was “profound improvement of wound morphology and wound re-epithelialization”. For the same compound, the “distance between wound margin epithelia (wound size)” value (ob/ob mice [2]; treated for 12 day, control 2.02±1.07 mm) was 0.74±0.90 mm, the “reduction of glucose excursion following oral glucose tolerance assay (absolute AUC)” value (ob/ob mice [3]) was 25% and the CL renal (clinical; oral, 5 mg) was ~70 mL/min. For the same compound, the CL renal (clinical; po) was 14 to 70 mL/min, the safety and tolerability [4] was “placebo-like safety and tolerability” and the “RA, AUC (accumulation ratio), gMean (gCV)” value (shortened to “RA, AUC (accumulation ratio)”) ([5]; 1 mg oral once daily) was 2.03 (30.7). For the same compound, the “RA, Cmax (accumulation ratio), gMean (gCV)” value (from here on “RA, Cmax (accumulation ratio)”) ([5]; 1 mg oral once daily) was 1.44 (25.6), the “feτ, ss, gMean (gCV)” value ([5]; 1 mg oral once daily) was 3.34 (38.3) % and the “RA, AUC (accumulation ratio)” value ([5]; 2.5 mg oral once daily) was 1.37 (8.2). The “RA, Cmax (accumulation ratio)” value ([5]; 2.5 mg oral once daily) was 1.25 (10.6), the “feτ, ss, gMean (gCV)” value ([5]; 2.5 mg oral once daily) was 3.06 (45.1) % and the “fe0-24, gMean (gCV)” value ([5]; 2.5 mg oral once daily) was 0.139 (51.2) %. For the same compound, the “RA, AUC (accumulation ratio)” value ([5]; 5 mg oral once daily) was 1.33 (15.0), the “RA, Cmax (accumulation ratio)” value ([5]; 5 mg oral once daily) was 1.33 (30.0) and the “feτ, ss, gMean (gCV)” value ([5]; 5 mg oral once daily) was 6.27 (42.2) %. For the same compound, the “fe0-24, gMean (gCV)” value ([5]; 5 mg oral once daily) was 0.453 (125)^ %, the “RA, AUC (accumulation ratio)” value ([5]; 10 mg oral once daily) was 1.18 (23.4) and the “RA, Cmax (accumulation ratio)” value ([5]; 10 mg oral once daily) was 1.40 (47.7). For the same compound, the “feτ, ss, gMean (gCV)” value ([5]; 10 mg oral once daily) was 3.22 (34.2) %, the “fe0-24, gMean (gCV)” value ([5]; 10 mg oral once daily) was 0.919 (115)^ % and the “mean accumulation ratio RA,AUC” value ([5]; doses above 1 mg, once daily oral) was ≤ 1.4. For the same compound, the “excreted via the kidney” value ([5]; therapeutic oral dose levels) was < 7 % of the administered oral dose and the route of excretion ([5]; therapeutic oral dose levels) was “primarily excreted unchanged via the bile”.
